Among the data in US20210163471A1, “PROGRANULIN MODULATORS AND METHODS OF USING THE SAME” (ARKUDA THERAPEUTICS, priority 2017, published 2021) are EC50 values, retold here.

The subject of the assay is BV-2 (mouse microglia) cells. In words: progranulin secretion from BV-2 cells, mouse progranulin ELISA of conditioned media. The conditions noted are these: BV-2 cells, 16 hours incubation, 8-point curves starting at 10 μM. Format: cell-based. The method, then:
BV-2 cells are split the day before plating into a 96 well plate format at approximately 80%. Cells should be plated the day before and allowed for 1 hour attachment period and for 16 hour incubation. […] Standard ELISA kits to measure PGRN are available from vendors such as Adipogen, R&D, and Biovendor.
Compound potency was determined by measuring progranulin secretion from BV-2 (mouse microglia) cells. BV-2 cells were grown in RPMI with 2 mM L-glutamine supplemented with 10% fetal bovine serum. On the day of the assay, cells were plated in 96-well plates at a density of 30,000 cells/well in RPMI (Roswell Park Memorial Institute media)/L-glutamine supplemented with 2% Fetal clone serum II (plating media) and left to adhere for 1 hour. Following attachment to the plate, media was replaced with treatment (8-point curves in half-log dilutions starting at 10 μM) in plating media and incubated for 16 hours. Secreted progranulin was measured from a 1:10 dilution of the conditioned media using the R&D Systems mouse progranulin ELISA kit (cat #DY2557) and following the manufacturer's instructions.
Background: In an ELISA, binding on a coated surface is turned into a signal by an enzyme label.

Setting [1] is: Mus musculus, BV-2, 16 h, assay run v2 (same protocol, different assay), read-out: PRGN v2 (EC50, progranulin secretion).
Setting [2] is: assay run v1, read-out: PRGN v1 (EC50, progranulin secretion).
[3] abbreviates: assay run v2 (same protocol, different assay), read-out: PRGN v2 (EC50, progranulin secretion).
Setting [4] is: Mus musculus, assay run v1, read-out: PRGN v1 (EC50, progranulin secretion).
[5] abbreviates: Mus musculus, assay run v2 (same protocol, different assay), read-out: PRGN v2 (EC50, progranulin secretion).
The mark [6] stands for this setting: Mus musculus, BV-2, 16 h, assay run v1, read-out: PRGN v1 (EC50, progranulin secretion).

Where two headings read alike, the source gives them in different places. Bounds are passed on as bounds.

By EC50 is commonly meant the concentration that produces a half-maximal response. In the case of `O=S(=O)(C[C@@H]1CN2CCC1CC2)N1CCc2ccccc2[C@@H]1c1ccccc1` [Compound 1140], under setting [1], the EC50 was over 10 µM.

In the case of `O=C(O[C@@H]1CN2CCC1CC2)N1CCc2ccccc2[C@H]1c1ccc(F)cc1F` [Compound 1013], the EC50 reads like this: under setting [2], over 10 µM; under setting [3], 1.75 µM. On to `COc1ccc([C@H]2c3ccccc3CCN2C(=O)O[C@@H]2CN3CCC2CC3)cc1F` [Compound 1038], for which, under setting [3], the EC50 was over 10 µM.

Turning to `O=C(O[C@@H]1CN2CCC1CC2)N1CCc2ccccc2[C@H]1c1ccc(OC2CC2)cc1` [Compound 1023], the EC50 by setting is: under setting [4], 9.53 µM; under setting [5], 6.33 µM. For `COc1ccc([C@H]2c3ccccc3CCN2C(=O)C[C@@H]2CN3CCC2CC3)cc1F` [Compound 1060], the EC50 runs as follows: under setting [6], over 10 µM; under setting [1], 2.07 µM.

On to `O=C(N[C@@H]1CN2CCC1CC2)N1CCc2ccccc2[C@H]1c1ccc(OCc2ccccc2)cc1` [Compound 1092], for which, under setting [6], the EC50 was determined as 2.21 µM. Regarding `O=C(O[C@@H]1CN2CCC1CC2)N1CCc2ccccc2[C@H]1c1ccc(F)cc1` [Compound 1005], the EC50 under setting [4] was over 7 µM.

Take `CS(=O)(=O)c1ccc([C@H]2c3ccccc3CCN2C(=O)C[C@@H]2CN3CCC2CC3)cc1` [Compound 1052]: under setting [6], the EC50 was over 10 µM. Still for that read-out and setting: next, `COc1ccc([C@@H]2c3ccccc3CCN2C(=O)N[C@@H]2CN3CCC2CC3)cn1` [Compound 1084]: over 3.16 µM.

For the molecule `COc1ccc([C@@H]2c3ccccc3CCN2C(=O)C[C@@H]2CN3CCC2CC3)cc1F` [Compound 1061], the EC50 under setting [6] was over 10 µM and the EC50 under setting [1] is over 10 µM. Regarding `COc1ccc([C@H]2c3ccccc3CCN2C(=O)N[C@@H]2CN3CCC2CC3)cn1` [Compound 1083], the EC50 under setting [6] is 2.55 µM. On to `CC1(C)[C@@H](OC(=O)N2CCc3ccccc3[C@@H]2c2ccc(F)cc2)C2CCN1CC2` [Compound 1144], for which, under setting [3], the EC50 is over 10 µM. With `O=C(O[C@@H]1CN2CCC1CC2)N1CCc2ccccc2[C@H]1c1cccc(F)c1F` [Compound 1014], the EC50 is over 10 µM under setting [2] and 4.3 µM under setting [3]. For `O=C(N[C@@H]1CN2CCC1CC2)N1CCc2ccccc2[C@H]1c1ccncc1` [Compound 1078], the EC50 under setting [6] was over 10 µM. For `O=C(Cc1ccccc1)N1CCc2ccccc2[C@@H]1c1ccc(F)cc1` [Compound 1125, (S)-1-(1-(4-fluorophenyl)-3,4-dihydroisoquinolin-2(1H)-yl)-2-phenylethanone], the EC50 under setting [1] was over 10 µM. Take `O=C(C[C@@H]1CN2CCC1CC2)N1CCc2ccccc2[C@H]1c1ccc(F)cc1` [Compound 1059]: under setting [4], the EC50 was over 10 µM.

As for `CC(C)Oc1ccc([C@H]2c3ccccc3CCN2C(=O)N[C@@H]2CN3CCC2CC3)cc1` [Compound 1087], the EC50 under setting [6] is over 10 µM. Regarding `CC1(C)[C@H](OC(=O)N2CCc3ccccc3[C@@H]2c2ccc(F)cc2)C2CCN1CC2` [Compound 1145], under setting [3], the EC50 was found to be 0.57 µM. For the molecule `O=C(O[C@@H]1CN2CCC1CC2)N1CCc2ccccc2[C@H]1c1ccc(-n2cncn2)cc1` [Compound 1019], the EC50 under setting [4] is over 10 µM and the EC50 under setting [5] was over 10 µM.

Consider `O=C(C[C@@H]1CN2CCC1CC2)N1CCc2ccccc2[C@H]1c1ccc(-n2cncn2)cc1` [Compound 1055], for which, under setting [6], the EC50 is over 10 µM. For the molecule `O=C(N[C@@H]1CN2CCC1CC2)N1CCc2cccnc2[C@H]1c1ccc(Cl)cc1` [Compound 1122], the EC50 runs as follows: under setting [6], 3.13 µM; under setting [1], over 10 µM. With `O=S(=O)(C[C@@H]1CN2CCC1CC2)N1CCc2ccccc2[C@H]1c1ccccc1` [Compound 1141], the EC50 under setting [1] was found to be 3.36 µM. Consider `O=C(N[C@@H]1CN2CCC1CC2)N1CCc2ccccc2[C@H]1c1ccc(-n2cnnc2)cc1` [Compound 1114], for which the EC50 was over 10 µM under setting [6] and over 10 µM under setting [1].

Consider `COCCOCCOCCNC(=O)c1ccc([C@@H]2c3ccccc3CCN2C(=O)O[C@@H]2CN3CCC2CC3)cc1` [Compound 1147], for which the EC50 under setting [5] is over 10 µM. Regarding `O=C(O[C@@H]1CN2CCC1CC2)N1CCc2ccccc2[C@@H]1c1ccc2ncsc2c1` [Compound 1032], the EC50 under setting [2] was over 10 µM and the EC50 under setting [3] amounted to 7.88 µM.

In the case of `O=C(O[C@@H]1CN2CCC1CC2)N1CCc2ccccc2[C@@H]1c1ccc(C(F)(F)F)cc1` [Compound 1126], the EC50 under setting [5] was 8.6 µM.

With `COc1cc([C@@H]2c3ccccc3CCN2C(=O)O[C@@H]2CN3CCC2CC3)ccn1` [Compound 1009], the EC50 under setting [2] is over 10 µM. Take `O=C1CCC([C@@H]2c3ccccc3CCN2C(=O)O[C@@H]2CN3CCC2CC3)CN1` (stereo partly shown) [Compound 1027]: the 50% effective concentration (EC50) under setting [2] came to 9.53 µM and the EC50 under setting [3] is over 10 µM. Consider `COCCOCCOCCNC(=O)c1ccc([C@H]2c3ccccc3CCN2C(=O)O[C@@H]2CN3CCC2CC3)cc1` [Compound 1146], for which, under setting [5], the EC50 was over 10 µM. As to `O=C(N[C@@H]1CN2CCC1CC2)N1CCc2ccccc2[C@@H]1c1ccc(F)c(F)c1` [Compound 1075], the EC50 under setting [6] came out at 0.19 µM. `O=C(O[C@@H]1CN2CCC1CC2)N1CCc2ccccc2[C@@H]1CS(=O)(=O)c1ccccc1` [Compound 1030]: the EC50 under setting [4] was over 10 µM and the EC50 under setting [5] is over 10 µM.

For the molecule `O=C(N[C@@H]1CN2CCC1CC2)N1CCc2ccccc2[C@@H]1c1ccc(-n2cncn2)cc1` [Compound 1101], the EC50 under setting [6] amounted to 3.85 µM. As to `O=C(C[C@H]1CN2CCC1CC2)N1CCc2ccccc2[C@@H]1c1ccccc1` [Compound 1051], under setting [6], the EC50 is 1.37 µM. Consider `O=C(O[C@@H]1CN2CCC1CC2)N1Cc2ccccc2[C@@H]1c1ccccc1` [Compound 1044], for which the EC50 under setting [5] is over 10 µM. With `O=C(O[C@@H]1CN2CCC1CC2)N1CCc2ccccc2[C@@H]1c1ccc(Cl)cc1` [Compound 1046], the EC50 under setting [4] is 0.34 µM. On to `O=C1CCCN1c1ccc([C@@H]2c3ccccc3CCN2C(=O)C[C@@H]2CN3CCC2CC3)cc1` [Compound 1067], for which the EC50 was over 10 µM under setting [6] and over 10 µM under setting [1]. For the molecule `O=C(C[C@@H]1CN2CCC1CC2)N1CCc2ccccc2[C@@H]1c1ccc(-n2cncn2)cc1` [Compound 1054], the EC50 under setting [6] was over 10 µM. Still for that read-out and setting: next, `O=C(N[C@@H]1CN2CCC1CC2)N1CCc2ccccc2[C@H]1c1ccc(-n2ccnc2)cc1` [Compound 1096]: 0.45 µM. As for `O=C(O[C@@H]1CN2CCC1CC2)N1CCc2ccccc2[C@@H]1c1cc(F)cc(F)c1` [Compound 1040], the EC50 under setting [3] was over 10 µM. With `Cc1nc2ccc([C@H]3c4ccccc4CCN3C(=O)O[C@@H]3CN4CCC3CC4)cc2o1` [Compound 1138], the EC50 under setting [5] was over 10 µM. Still for that read-out and setting: next, `O=C(O[C@@H]1CN2CCC1CC2)N1CCc2ccccc2[C@@H]1c1ccc(-n2cnnc2)cc1` [Compound 1042]: over 10 µM. Regarding `O=C(O[C@@H]1CN2CCC1CC2)N1CCc2ccccc2[C@H]1c1cc2ccccc2s1` [Compound 1037], the EC50 runs as follows: under setting [2], over 3.16 µM; under setting [3], over 10 µM. Regarding `CS(=O)(=O)c1ccc([C@H]2c3ccccc3CCN2C(=O)O[C@@H]2CN3CCC2CC3)cc1` [Compound 1001, (S)—((S)-quinuclidin-3-yl)-1-(4-(methylsulfonyl)phenyl)-3,4-dihydroisoquinoline-2(1H)-carboxylate], under setting [4], the EC50 is over 10 µM. As for `O=C(N[C@@H]1CN2CCC1CC2)N1CCc2ccccc2[C@@H]1c1ccc2nccn2c1` [Compound 1079], under setting [6], the EC50 amounted to 3.69 µM. Still for that read-out and setting: next, `O=C(N[C@@H]1CN2CCC1CC2)N1CCc2ccccc2[C@@H]1c1ccc(-n2ccnn2)cc1` [Compound 1099]: over 10 µM. For the molecule `COc1cc([C@H]2c3ccccc3CCN2C(=O)O[C@@H]2CN3CCC2CC3)ccn1` [Compound 1008], the EC50 under setting [2] was over 10 µM. In the case of `O=C(N[C@@H]1CN2CCC1CC2)N1CCc2ccccc2[C@H]1c1ccc(-n2cncn2)cc1` [Compound 1102], the EC50 under setting [6] was over 10 µM.

Take `CC1(C)[C@@H](OC(=O)N2CCc3ccccc3[C@@H]2c2cccc(F)c2F)C2CCN1CC2` [Compound 1148]: under setting [5], the EC50 is over 10 µM. For the molecule `O=C(O[C@@H]1CN2CCC1CC2)N1CCc2ccccc2[C@@H]1c1ccc(-n2cncn2)cc1` [Compound 1018], the EC50 under setting [4] was over 10 µM and the EC50 under setting [5] was over 10 µM. Regarding `O=C(C[C@@H]1CN2CCC1CC2)N1CCc2ccccc2[C@@H]1c1ccc(F)cc1F` [Compound 1053], the EC50 under setting [6] worked out at 0.96 µM.

As to `Cc1nc2cc([C@H]3c4ccccc4CCN3C(=O)O[C@@H]3CN4CCC3CC4)ccc2s1` [Compound 1132], under setting [5], the EC50 is over 10 µM.

With `COc1ccc([C@@H]2c3ccccc3CCN2C(=O)C[C@@H]2CN3CCC2CC3)cc1` [Compound 1057], under setting [6], the EC50 was 4.2 µM. For the molecule `O=C(O[C@@H]1CN2CCC1CC2)N1CCc2ccccc2[C@@H]1c1ccc(F)c(F)c1` [Compound 1010], the EC50 is, setting by setting: under setting [4], 0.92 µM; under setting [5], 2.03 µM. For the molecule `O=C(N[C@@H]1CN2CCC1CC2)N1CCc2ccccc2[C@@H]1c1cccc(F)c1` [Compound 1109], the EC50 under setting [6] was found to be 1.03 µM and the EC50 under setting [1] was determined as 1.44 µM.
